In patent publication US20220143123A1, “Prevention of Pathological Coagulation in COVID-19 and other Inflammatory Conditions” (priority 2020, published 2022):
Entries after “also recorded” stand apart in the source; their conditions may differ. Read-outs that look alike come from different tables or passages of the source.

Experiments:
[1] = test system: BALB/c mice with LPS-induced ARDS; conditions: cited from earlier work
[2] = test system: LPS-challenged macrophages; conditions: pre-incubated 6 h (0 to 50 μM), LPS 24 h; cited from earlier work
Tissue Factor = experiment: TNF-alpha induced Tissue Factor expression in HUVEC, flow cytometry; assay type: cell-based, human; conditions: TNF-alpha stimulation 48 hours
Procedure: In the experiments below, human umbilical vein endothelial cells (HUVEC) where purchased from AllCells and grown in Opti-MEM media with complete fetal calf serum. Cells were stimulated with the indicated concentrations of TNF-alpha for 48 hours and incubated with the indicated concentrations of individual components of QuadraMune™ as well as the combination. Quantification of Tissue Factor was performedby flow cytometry and expressed as mean fluorescent intensity (MFI).

[3] = test system: Nrf2 (+/+) primary peritoneal macrophages; conditions: cited from earlier work
[4] = test system: lipopolysaccharide-induced inflammatory reactions; conditions: cited from earlier work
[5] = test system: mice challenged with endotoxin (LPS O111:B4) or live Escherichia coli; conditions: cited from earlier work; for concentration of IL-1α: controls 1187.0±278.64
[6] = test system: mice with LPS-induced ARDS; conditions: 10 mg/kg ip; cited from earlier work
C57BL6 mice = conditions: 10 mg/kg intraperitoneally, 72 h after CL2P; cited from earlier work
[7] = test system: nuclear factor-κB (NF-κB); conditions: macrophage foam cells; cited from earlier work
male Sprague-Dawley rats = conditions: 10 mg/kg intraperitoneally at 1 and 6 h after CL2P and every 12 h; cited from earlier work
[8] = test system: mice with experimental colitis; conditions: 50 and 100 mg/kg/day; cited from earlier work
mice = conditions: cited from earlier work
[9] = test system: lipopolysaccharide-activated macrophages; conditions: cited from earlier work
[10] = test system: rats subjected to myocardial ischemia and reperfusion; conditions: 10 mg/kg intravenously then 10 mg/kg/h infusion; cited from earlier work
[11] = test system: human umbilical vein VECs (HUVECs); conditions: oxLDL 200 μg/ml; cited from earlier work
apoE(−/−) mice = conditions: injection; cited from earlier work
NK cell = experiment: Nanostilbene in cancer patients: NK cell activity and interferon gamma production; assay type: in vivo, human; conditions: pterostilbene administered in the form of nanostilbene in cancer patients
[12] = test system: lectin-like oxLDL receptor-1 (LOX-1); conditions: in vitro and in vivo; cited from earlier work
[13] = animal studies; cited from earlier work
[14] = test system: interleukin-1, interleukin-6, interleukin-8, TNF-alpha; conditions: cited from earlier work
[15] = 50 mg/kg, LPS 5 mg/kg 3 days later

C[S+]([O-])CCCCN=C=S (stereo not drawn) [sulforaphane, 1-isothiocyanato-4-(methylsulfinyl)-butane]
serum levels of IL-6 and TNF-α, nuclear factor-κB protein expression ([1]; 50 mg/kg, ELISA): significantly decreased
lactate dehydrogenase (LDH) activity [1, 15]: significantly decreased
wet-to-dry ratio of the lungs [1, 15]: significantly decreased
PGE2 production, COX-2 and MMP-9 protein expression, iNOS activity ([1]; 50 mg/kg): significantly inhibited
Nrf2/antioxidant response element (ARE) pathway ([1]; pre-treatment): activated
expression of NO and cytokines [2]: able to prevent the expression of NO and cytokines
TNF-alpha induced Tissue Factor expression (mean fluorescent intensity) (Tissue Factor): reduction of TNF-alpha induced Tissue Factor expression
TNF-alpha induced Tissue Factor expression (mean fluorescent intensity) (Tissue Factor; listed as Sulforaphane): reduces inflammation induced tissue factor expression
HO-1 expression ([3]; LPS-stimulated Nrf2 (+/+) macrophages): significantly augmented
LPS-stimulated mRNA expression, protein expression and production of TNF-alpha, IL-1beta, COX-2 and iNOS ([3]; pretreatment, Nrf2 (+/+) macrophages): potently inhibited

CC1=CC(=O)C(C(C)C)=CC1=O [thymoquinone]
lipopolysaccharide-induced inflammatory reactions [4]: suppressed effectively the lipopolysaccharide-induced inflammatory reactions
concentration of nitric oxide ([4]; marker of inflammation): reduced significantly the concentration of nitric oxide
TNF-alpha induced Tissue Factor expression (mean fluorescent intensity) (Tissue Factor): reduction of TNF-alpha induced Tissue Factor expression
TNF-alpha induced Tissue Factor expression (mean fluorescent intensity) (Tissue Factor; listed as Thymoquinone): reduces inflammation induced tissue factor expression
concentration of IL-1α ([5]; 0.75 mg/kg dose): 310.8 ± 70.93 pg/mL
IL-10 levels ([5]; 0.75 mg/kg, controls 5505.2±333.96): 2885.0 ± 553.98 pg/mL
concentration of IL-1α ([5]; 1 mg/kg group): 428.3 ± 71.32 pg/mL
levels of TNF-α and IL-2 ([5]; P values=0.1817 and 0.0851): relatively lower levels of TNF-α and IL-2
reduction of mortality ([5]; mice, sepsis): 80-90%
renal and hepatic biomarker profiles ([5]; mice, sepsis): improved both renal and hepatic biomarker profiles

epigallocatechin-3-gallate [EGCG]
expression of TNF-α, IL-1β and IL-6 in lung, serum and bronchoalveolar lavage fluid [6]: significantly decreased
survival (C57BL6 mice): significantly improved
TNF-α-induced NF-κB activity [7]: inhibition of the TNF-α-induced nuclear factor-κB (NF-κB) activity
hypotension (mean arterial blood pressure) (male Sprague-Dawley rats): significantly improved
plasma levels of IL-10 and TGF-β1 [8]: increasing the plasma levels of IL-10 and TGF-β1
release of IL-6 and IL-17 [8]: reduce the release of IL-6 and IL-17
rescue from lethal sepsis (mice; first dose 24 hours after cecal ligation and puncture): rescued mice from lethal sepsis
protection against lethal endotoxemia (mice; intraperitoneal administration): protected mice against lethal endotoxemia
TNF-alpha induced Tissue Factor expression (mean fluorescent intensity) (Tissue Factor): reduces inflammation induced tissue factor expression; also recorded: reduction of TNF-alpha induced Tissue Factor expression
activation of nuclear factor-kappaB ([9]; electrophoretic mobility shift assay): blocked the activation of nuclear factor-kappaB
nitric oxide (NO) generation ([9]; marker of activated macrophages): inhibit nitric oxide (NO) generation
myocardial damage and myeloperoxidase activity [10]: reduced myocardial damage and myeloperoxidase activity
plasma IL-6 and creatine phosphokinase levels [10]: decreased

trans-3,5-dimethoxy-4-hydroxystilbene [pterostilbene]
protection against oxLDL-induced cell shrinkage, chromatin condensation, nuclear fragmentation, apoptosis [11]: protected against such injuries
number of TUNEL-positive cells in the endothelium of atherosclerotic plaque (apoE(−/−) mice): strongly decreased the number of TUNEL-positive cells
NK cell activity (NK cell): increased NK cell activity
interferon gamma production (NK cell): increased
LOX-1 expression [12]: inhibited the expression of lectin-like oxLDL receptor-1 (LOX-1)
TNF-alpha induced Tissue Factor expression (mean fluorescent intensity) (Tissue Factor): reduction of TNF-alpha induced Tissue Factor expression
TNF-alpha induced Tissue Factor expression (mean fluorescent intensity) (Tissue Factor; listed as Pterostilbene): reduces inflammation induced tissue factor expression
bioavailability [13]: 80%
inhibition of inflammatory cytokines (interleukin-1, interleukin-6, interleukin-8, TNF-alpha) [14]: inhibit inflammatory cytokines associated with ARDS
